Among the data in patent US20240158394A1, “NEK7 INHIBITORS” (Halia Therapeutics, Inc., priority 2022, published 2024) are IC50 values, retold here.

Broadly, the IC50 is the midpoint of a concentration-inhibition curve.

In the test the target is full-length recombinant human NEK7 (Homo sapiens (Human), UniProt Q8TDX7). Description: NEK7 Enzymatic Assay. The class given is biochemical. To be noted: casein substrate, [33P]-ATP, 2 hours at room temperature. As to the method: Casein substrate (from bovine milk, hydrolyzed and partially dephosphorylated mixture of α, β and κ caseins, obtained from Sigma Aldrich, catalogue #C4765, diluted in distilled water to a final concentration of 1 mg/mL) and full-length recombinant human NEK7 (expressed by baculovirus in Sf9 insect cells using a N-terminal GST tag, obtained from SignalChem, catalogue #N09-10G, 0.1 μg/μL) were mixed in assay buffer (20 mM HEPES pH 7.5, 10 mM MgCl2, 1 mM EGTA, 0.02% Brij35, 0.02 mg/mL BSA, 0.1 mM Na3VO4, 2 mM DTT, 1% DMSO). Compounds of interest (serial 3-fold dilution in DMSO from 10 μM to 0.5 nM) or vehicle (1% DMSO) were dispensed into the kinase reaction mixture by Acoustic technology (Echo550; nanoliter range). After incubation at room temperature for 20 minutes, the kinase reaction was initiated by addition of [^33P]-ATP (specific activity 10 μCi/μL) and the mixture was incubated at room temperature for 2 hours. The reaction was then stopped by spotting the reaction mixture on strips of phosphocellulose P81 paper. Following washing, the radioactivity of the P81 paper was measured and kinase activity data were expressed as the percent remaining kinase activity in test samples compared to vehicle reactions. IC50 values and curve fits were obtained using Prism (GraphPad Software).
Chain of full-length recombinant human NEK7 (Q8TDX7 whole entry): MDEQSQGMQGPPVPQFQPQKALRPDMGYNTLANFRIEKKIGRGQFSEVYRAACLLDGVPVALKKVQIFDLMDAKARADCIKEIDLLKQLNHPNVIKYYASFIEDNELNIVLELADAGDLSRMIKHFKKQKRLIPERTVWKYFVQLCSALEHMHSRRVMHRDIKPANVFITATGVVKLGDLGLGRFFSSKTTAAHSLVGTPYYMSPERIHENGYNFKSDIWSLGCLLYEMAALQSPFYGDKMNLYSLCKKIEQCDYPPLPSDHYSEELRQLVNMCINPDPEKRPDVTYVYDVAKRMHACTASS
With `Nc1ncnc2c1c(-c1ccc(NC(=O)Nc3ccc(CN4CCN(CCO)CC4)c(C(F)(F)F)c3)c3nccn13)cn2C1CC1` [Example I-39, 1-(5-(4-amino-7-cyclopropyl-7H-pyrrolo[2,3-d]pyrimidin-5-yl)imidazo[1,2-a]pyridin-8-yl)-3-(4-((4-(2-hydroxyeth-yl)piperazin-1-yl)methyl)-3-(trifluoromethyl)phenyl)urea], the IC50 was below 200 nM.

Consider `COCCN1CCN(Cc2ccc(NC(=O)Nc3ccc(-c4cn(C5CC5)c5ncnc(N)c45)n4ccnc34)cc2C(F)(F)F)CC1` [Example I-40, 1-(5-(4-amino-7-cyclopropyl-7H-pyrrolo[2,3-d]pyrimidin-5-yl)imidazo[1,2-a]pyridin-8-yl)-3-(4-((4-(2-methoxyeth-yl)piperazin-1-yl)methyl)-3-(trifluoromethyl)phenyl)urea], for which the IC50 is below 200 nM. Turning to `Nc1ncnc2c1c(-c1ccc(NC(=O)Nc3ccc(CN4CCN(CCF)CC4)c(C(F)(F)F)c3)c3nccn13)cn2C1CC1` [Example I-41, 1-(5-(4-amino-7-cyclopropyl-7H-pyrrolo[2,3-d]pyrimidin-5-yl)imidazo[1,2-a]pyridin-8-yl)-3-(4-((4-(2-fluoroethyl)-piperazin-1-yl)methyl)-3-(trifluoromethyl)phenyl)urea], the IC50 was below 200 nM.

Turning to `Nc1ncnc2c1c(-c1ccc(NC(=O)Nc3cc(C4(C(F)(F)F)CC4)on3)c3nc(C(F)(F)F)cn13)cn2C1CC1` [Example I-46, 1-(5-(4-amino-7-cyclopropyl-7H-pyrrolo[2,3-d]pyrimidin-5-yl)-2-(trifluoromethyl)-imidazo[1,2-a]pyridin-8-yl)-3-(5-(1-(trifluoromethyl)cyclo-propyl)isoxazol-3-yl)urea], the IC50 was above 2000 nM.

`Nc1ncnc2c1c(-c1cnc(NC(=O)Nc3cc(C4(C(F)(F)F)CC4)on3)c3nccn13)cn2C1CC1` [Example I-50, 1-(5-(4-amino-7-cyclopropyl-7H-pyrrolo[2,3-d]pyrimidin-5-yl)imidazo[1,2-a]pyrazin-8-yl)-3-(5-(1-(trifluoromethyl)-cyclopropyl)isoxazol-3-yl)urea]: the IC50 was above 2000 nM. Then `CCN1CCN(Cc2ccc(NC(=O)Nc3ccc(-c4cn(C5CC5)c5ncnc(N)c45)c4c3OCC4)cc2C(F)(F)F)CC1` [Example I-54, 1-(4-(4-amino-7-cyclopropyl-7H-pyrrolo[2,3-d]pyrimidin-5-yl)-2,3-dihydrobenzofuran-7-yl)-3-(4-((4-ethylpiperazin-1-yl)methyl)-3-(trifluorometh-yl)phenyl)urea], with below 200 nM; and `CN1CCC(Oc2ccc(NC(=O)Nc3ccc(-c4cn(C5CC5)c5ncnc(N)c45)c4c3OCC4)cc2C(F)(F)F)CC1` [Example I-55, 1-(4-(4-amino-7-cyclopropyl-7H-pyrrolo[2,3-d]pyrimidin-5-yl)-2,3-dihydrobenzofuran-7-yl)-3-(4-((1-methylpiperidin-4-yl)oxy)-3-(trifluorometh-yl)phenyl)urea], with 200 to 500 nM; and `CC1Cc2c(-c3cn(C4CC4)c4ncnc(N)c34)ccc(NC(=O)Nc3cc(C4(C(F)(F)F)CC4)on3)c2O1` (stereo not shown) [Example I-56, 1-(4-(4-amino-7-cyclopropyl-7H-pyrrolo[2,3-d]pyrimidin-5-yl)-2-methyl-2,3-dihydro-benzofuran-7-yl)-3-(5-(1-(trifluoromethyl)cyclopropyl)-isoxazol-3-yl)urea], with 500 to 2000 nM.

As to `CC1Cc2c(-c3cn(C4CC4)c4ncnc(N)c34)ccc(NC(=O)Nc3ccc(CN4CCN(C)CC4)c(C(F)(F)F)c3)c2O1` (stereo not shown) [Example I-57, 1-(4-(4-amino-7-cyclopropyl-7H-pyrrolo[2,3-d]pyrimidin-5-yl)-2-methyl-2,3-dihydro-benzofuran-7-yl)-3-(4-((4-methylpiperazin-1-yl)methyl)-3-(trifluoromethyl)phenyl)urea], the IC50 is 500 to 2000 nM. Regarding `CC1Cc2c(-c3cn(C4CC4)c4ncnc(N)c34)ccc(NC(=O)Nc3ccc(OC4CCN(C)CC4)c(C(F)(F)F)c3)c2O1` (stereo not shown) [Example I-58, 1-(4-(4-amino-7-cyclopropyl-7H-pyrrolo[2,3-d]pyrimidin-5-yl)-2-methyl-2,3-dihydro-benzofuran-7-yl)-3-(4-((1-methylpiperidin-4-yl)oxy)-3-(trifluoromethyl)phenyl)urea], the IC50 is above 2000 nM. The result for `CC1(C)Cc2c(-c3cn(C4CC4)c4ncnc(N)c34)ccc(NC(=O)Nc3cc(C4(C(F)(F)F)CC4)on3)c2O1` [Example I-59, 1-(4-(4-amino-7-cyclopropyl-7H-pyrrolo[2,3-d]pyrimidin-5-yl)-2,2-dimethyl-2,3-dihydrobenzofuran-7-yl)-3-(5-(1-(trifluoromethyl)cyclo-propyl)isoxazol-3-yl)urea] reads 200 to 500 nM.

With `CN1CCN(Cc2ccc(NC(=O)Nc3ccc(-c4cn(C5CC5)c5ncnc(N)c45)c4c3OC(C)(C)C4)cc2C(F)(F)F)CC1` [Example I-60, 1-(4-(4-amino-7-cyclopropyl-7H-pyrrolo[2,3-d]pyrimidin-5-yl)-2,2-dimethyl-2,3-dihydrobenzofuran-7-yl)-3-(4-((4-methylpiperazin-1-yl)-methyl)-3-(trifluoromethyl)-phenyl)urea], the IC50 was above 2000 nM. Regarding `CN1CCC(Oc2ccc(NC(=O)Nc3ccc(-c4cn(C5CC5)c5ncnc(N)c45)c4c3OC(C)(C)C4)cc2C(F)(F)F)CC1` [Example I-61, 1-(4-(4-amino-7-cyclopropyl-7H-pyrrolo[2,3-d]pyrimidin-5-yl)-2,2-dimethyl-2,3-dihydrobenzofuran-7-yl)-3-(4-((1-methylpiperidin-4-yl)-oxy)-3-(trifluoromethyl)phen-yl)urea], the IC50 is above 2000 nM. In the case of `Nc1ncnc2c1c(-c1ccc(NC(=O)Nc3cc(C4(C(F)(F)F)CC4)no3)c3occc13)cn2C1CC1` [Example I-64, 1-(4-(4-amino-7-cyclopropyl-7H-pyrrolo[2,3-d]pyrimidin-5-yl)benzofuran-7-yl)-3-(3-(1-(trifluoromethyl)cyclo-propyl)isoxazol-5-yl)urea], the IC50 is above 2000 nM. Take `CN1CCC(Oc2ccc(NC(=O)Nc3ccc(-c4cn(C5CC5)c5ncnc(N)c45)c4ccoc34)cc2C(F)(F)F)CC1` [Example I-67, 1-(4-(4-amino-7-cyclopropyl-7H-pyrrolo[2,3-d]pyrimidin-5-yl)benzofuran-7-yl)-3-(4-((1-methylpiperidin-4-yl)oxy)-3-(trifluoromethyl)phenyl)urea]: the IC50 is 500 to 2000 nM.

On to `CN1CCC(Oc2ccc(NC(=O)Nc3ccc(-c4cn(C5CC5)c5ncnc(N)c45)c4cnoc34)cc2C(F)(F)F)CC1` [Example I-70, 1-(4-(4-amino-7-cyclopropyl-7H-pyrrolo[2,3-d]pyrimidin-5-yl)benzo[d]isoxazol-7-yl)-3-(4-((1-methylpiperidin-4-yl)oxy)-3-(trifluoromethyl)-phenyl)urea], for which the IC50 was below 200 nM. With `Nc1ncnc2c1c(-c1ccc(NC(=O)Nc3cc(C4(C(F)(F)F)CC4)on3)c3ocnc13)cn2C1CC1` [Example I-71, 1-(4-(4-amino-7-cyclopropyl-7H-pyrrolo[2,3-d]pyrimidin-5-yl)benzo[d]oxazol-7-yl)-3-(5-(1-(trifluoromethyl)cyclo-propyl)isoxazol-3-yl)urea], the IC50 lay in the range of 500 to 2000 nM. Consider `CN1CCN(Cc2ccc(NC(=O)Nc3ccc(-c4cn(C5CC5)c5ncnc(N)c45)c4nonc34)cc2C(F)(F)F)CC1` [Example I-78, 1-(7-(4-amino-7-cyclopropyl-7H-pyrrolo[2,3-d]pyrimidin-5-yl)benzo[c][1,2,5]oxadiazol-4-yl)-3-(4-((4-methylpiperazin-1-yl)methyl)-3-(trifluorometh-yl)phenyl)urea], for which the IC50 was below 200 nM.

Turning to `CC(C)n1cc(-c2ccc(NC(=O)Nc3cc(C4(C(F)(F)F)CC4)on3)c3nccn23)c2c(N)ncnc21` [Example I-83, 1-(5-(4-amino-7-isopropyl-7H-pyrrolo[2,3-d]pyrimidin-5-yl)imidazo[1,2-a]pyridin-8-yl)-3-(5-(1-(trifluorometh-yl)cyclopropyl)isoxazol-3-yl)-urea], the IC50 is below 200 nM. Regarding `Nc1ncnc2c1c(-c1ccc(NC(=O)Nc3cc(C4(C(F)(F)F)CC4)on3)c3nccn13)cn2C1CCC1` [Example I-84, 1-(5-(4-amino-7-cyclobutyl-7H-pyrrolo[2,3-d]pyrimidin-5-yl)imidazo[1,2-a]pyridin-8-yl)-3-(5-(1-(trifluoromethyl)-cyclopropyl)isoxazol-3-yl)urea], the IC50 was below 200 nM.

For `Nc1ncnc2c1c(-c1ccc(NC(=O)Nc3cc(C4(C(F)(F)F)CC4)on3)c3nccn13)cn2CCO` [Example I-85, 1-(5-(4-amino-7-(2-hydroxy-ethyl)-7H-pyrrolo[2,3-d]pyr-imidin-5-yl)imidazo[1,2-a]-pyridin-8-yl)-3-(5-(1-(tri-fluoromethyl)cyclopropyl)-isoxazol-3-yl)urea], the half-inhibitory concentration (IC50) is below 200 nM. For `CC(C)(O)Cn1cc(-c2ccc(NC(=O)Nc3cc(C4(C(F)(F)F)CC4)on3)c3nccn23)c2c(N)ncnc21` [Example I-86, 1-(5-(4-amino-7-(2-hydroxy-2-methylpropyl)-7H-pyrrolo-[2,3-d]pyrimidin-5-yl)-imidazo[1,2-a]pyridin-8-yl)-3-(5-(1-(trifluoromethyl)-cyclopropyl)isoxazol-3-yl)urea], the IC50 was below 200 nM.
